The values below come from ChEMBL document CHEMBL4371081, “The role of N-terminal heterocycles in hydrogen bonding to α-chymotrypsin” (Bioorg Med Chem Lett, 2019).

The source made the active and inactive calls. No cut-off for these calls is given here. Where a SMILES comes first, the peptide text is derived from it. [ ]: non-standard residue; d: D form. The star is where a group is joined. ξ: configuration not given here. Phe(ol) = N[C@H](CO)Cc1ccccc1; ξF = NC(Cc1ccccc1)C(=O)O; Boc = CC(C)(C)OC(=O)*

Test system in the first assay: not listed separately
Kind of assay: Inhibition of alpha-chymotrypsin (unknown origin) using Ala-Ala-Phe-7-AMC as substrate measured over 10 mins by spectrophotometric method. Also noted: species or system Homo sapiens.
As a reminder, the IC50 is the point on the concentration scale where inhibition reaches its midpoint. As to `COC(=O)c1cccc(C(=O)N[C@@H](CC(C)C)C(=O)NC(C=O)Cc2ccccc2)n1` (stereo partly specified), the IC50 is 35 µM. On the same count and under the same terms, the value for `CC(C)C[C@H](NC(=O)[C@H](C)NC(=O)OC(C)(C)C)C(=O)NC(C=O)Cc1ccccc1` (stereo partly drawn) (Boc-Ala-Leu-[ξF]-aldehyde) was 1.4 µM.

On to `COC(=O)c1ccc(C(=O)N[C@@H](CC(C)C)C(=O)NC(C=O)Cc2ccccc2)[nH]1` (mixture of isomers), for which it took 1.1 µM to reach half-maximal inhibition (IC50). In turn, `COC(=O)c1ccc(C(=O)N[C@@H](CC(C)C)C(=O)NC(C=O)Cc2ccccc2)o1` (mixture of isomers) returned an IC50 of 36 µM. `COC(=O)c1ccc(C(=O)N[C@@H](CC(C)C)C(=O)NC(C=O)Cc2ccccc2)s1` (mixture of isomers) gave an IC50 of 40 µM.

For a further assay, the species on record is Homo sapiens. The assay can be described thus: Inhibition of alpha-chymotrypsin (unknown origin) at 500 uM using Ala-Ala-Phe-7-AMC as substrate measured over 10 mins by spectrophotometric method.
On to `CC(C)C[C@H](NC(=O)[C@H](C)NC(=O)OC(C)(C)C)C(=O)N[C@H](CO)Cc1ccccc1` (Boc-Ala-Leu-[Phe(ol)]), for which the inhibition entry was “inactive”.

Regarding `COC(=O)c1ccc(C(=O)N[C@@H](CC(C)C)C(=O)N[C@H](CO)Cc2ccccc2)o1`, the inhibition entry was “inactive”. Same read-out and setting: with `CCOC(=O)c1ccc(C(=O)N[C@@H](CC(C)C)C(=O)N[C@H](CO)Cc2ccccc2)o1` the entry was “inactive”.

In the case of `COC(=O)c1ccc(C(=O)N[C@@H](CC(C)C)C(=O)N[C@H](CO)Cc2ccccc2)[nH]1`, the inhibition result is “inactive”. With `COC(=O)c1cccc(C(=O)N[C@@H](CC(C)C)C(=O)N[C@H](CO)Cc2ccccc2)n1`, the inhibition entry is “inactive”. Turning to `COC(=O)c1ccc(C(=O)N[C@@H](CC(C)C)C(=O)N[C@H](CO)Cc2ccccc2)s1`, the inhibition result was “inactive”.
